Test results reported in patent US5912270A, “Anti-inflammatory compounds” (SmithKline Beecham Corporation, priority 1996, dated 1999).
Structures can show the parent of a compound that is named as a salt. Where two headings read alike, the source gives them in different places.

Tests used:
CoA-IT = assay: Assay (b): microsomal CoA-IT activity assay; assay type: biochemical, human; details: U937 microsomes
From the text: The following is a method to measure CoA-IT activity and the effects of compounds on CoA-IT activity. The assay is based upon mixing cellular material containing CoA-IT activity with a stable lyso phospholipid such as […] and measuring the production of phospholipid product such as […] occurring in the absence of added CoA or CoA-fatty acids.
Any inflammatory cell that contains high levels of CoA-IT activity can be used, such as neutrophils, macrophages or cell lines such as U937 cells. […] Cells were grown without differentiation (basal state) by any agent, such as dimethyl sulfoxide. As used herein, "inflammatory cells" include, but are not limited to neutrophils, macrophages, monocytes, lymphocytes, eosinophils, basophils, and mast cells.
Microsomes were prepared using standard techniques. In this case, cells were washed with a buffer of 250 mM sucrose, 10 mM Tris, 1 mM EGTA, 1 mM MgCl2, pH 7.4 and ruptured by N2 cavitation (750 psi, 10 minutes). The ruptured cells were centrifuged 1000×g, 5 minutes. The resulting supernatant was centrifuged at 20,000×g,~20 minutes. Microsomes were prepared from this supernatant by centrifugation at 100,000×g, 60 minutes. The resulting pellet was washed once with assay buffer (150 mM NaCl, 10 mM Na2 KPO4, 1 mM EGTA, pH 7.4), recentrifuged and the pellet resuspended in assay buffer (4-20 mg protein/ml) and was stored at -80° C. until assayed.
CoA-IT activity was measured in 1.5 ml centrifuge tubes in a total volume of 100 ul. Microsomes were diluted in assay buffer to the desired protein concentration (6-20 ug/tube). The reaction was initiated by addition of [3H ]1-alkyl-2-lyso-sn-glycero-3-phosphocholine (GPC) (~0.1 uCi/tube) and 1 μM final cold 1-alkyl-2-lyso-GPC in assay buffer with 0.25 mg/ml fatty acid-poor bovine serumalbumin (BSA) (Calbiochem, La Jolla, Calif.). [3H]1-2-alkyl-2-lyso-GPC, approximately 50 Ci/mmol, was from NEN-Dupont (Boston, Mass.) and cold 1-alkyl-2-lyso-GPC was from Biomol (Plymouth Meeting, Pa). Microsomes were pretreated with desired agents for the desired time (10 minutes) before the addition of [3H]1-alkyl-2-lyso-GPC. The reaction was run for the desired time (10 minutes) at 37° C. The reaction was stopped and the lipids extracted by addition of 100 ul of chloroform:methanol (1:2, v/v) followed by 100 ul of chloroform and 100 ul of 1M KCI. The samples were vortexed and centrifuged at high speed in a microfuge for 2-3 minutes. An aliquot of the chloroform-extracted materials were separated, usually by TLC in chloroform/methanol/acetic acid/water (50:25:8:4, v/v), visualized by radioscanning (Bioscan) and the product, [3H] 1-alkyl-2-acyl-GPC, was scraped and quantified by liquid scintillation spectroscopy. […] Other methods can be used to separate substrate from product, including but not limited to column chromatography, affinity chromatography and post reaction derivitization.

human Monocytes = assay: Assay (f): stimulated eicosanoid release by human monocytes; assay type: cell-based; details: Monocyte
Procedure: Human Monocyte Isolation. Leukocyte-rich leukopaks obtained from Biological Specialties (Lansdale, Pa.) were collected from male volunteers who were not talking antiinflammatory drugs. Leukopaks were centrifuged (90×g for 15 min) twice to remove the platelet-rich plasma. The cell pellet was washed by centrifugation and resuspended in HBSS without Ca^2+ or Mg^2+. Histopaque 1077 was layered under the cell suspension and centrifuged at 400×g for 30 min to obtain the buffy coat. The interfacial buffy coat, containing monocytes and lymphocytes, was removed and saved. The buffy coat was washed twice with HBSS without Ca^2+ or Mg^2+ by centrifugation. […]
Measurement of Stimuli-Induced Eicosanoid Release. […] (A23187, 1 μM,(15 min). The reaction was terminated by reduction of pH through addition of citric acid and centrifugation (10 min, 400×g, 4° C.). Cell viability was monitored before and after experiments using trypan blue exclusion. The cell-free media was decanted and stored at -70° C. until analyzed. Prostaglandin E2 and LTC4 were directly measured in cell-free media using enzyme immunoassay (EIA) kits purchased from Caymen Chemical Co. (Ann Arbor, Mich.). Sample or standard dilutions were made with appropriate media and analyzed in triplicate. Results were obtained by extrapolation from a standard curve prepared in the media and expressed as pg or ng/ml of sample.

[1] = test system: TPA-induced Mouse Ear Inflammation; assay: Assay (g): TPA-induced Mouse Ear Inflammation (edema and MPO); assay type: in vivo; details: for MPO ED50 / edema ED50: TPA ear model; for MPO ED50 / edema ED50 / TPA % change in edema / change in MPO for TPA model: topical; for TPA % change in edema / change in MPO for TPA model: doses of 0.2, 0.1 and 0.3 for dexamethasone, scalaradial, WY 50,295 respectively
Procedure: (§1) Male Balb/c inbred mice were obtained from Charle River Breeding Laboratories (Kingston, N.Y.). Within a single experiment mice (22-25 g) were age-matched. These in vivo experiments typically involved use of 5-6 animals/group.
TPA (12-0-tetradecanoylphorbol 13-acetate) (Sigma Chemical Company) in acetone (4 mg/20 ml) was applied to the inner and outer surfaces of the left ear of BALB/c male mice. The thickness of both ears was then measured with a dial micrometer (Mitutoyo, Japan) at both 2 and 4 hours after treatment, and the data expressed as the change in thickness (10^-3 cm) between treated and untreated ears. […] After measuring the edema, the inflammed left ears were removed and stored at -70° C. until they were assayed for MPO (myeloperoxidase) activity where appropriate.
On the day of the assay, partially thawed ear tissues were minced and then homogenized (10% w/v) with a Tissumizer homogenizer (Tekmar Co.) in 50 mM phosphate buffer (pH 6) containing 0.5% HTAB. The tissue homogenates were taken through three cycles of freeze-thaw, followed by brief sonication (10 sec). The method of Bradley et al. was used with modifications as described. […] Supernatant MPO activity was quantified kinetically (change in absorbance measured over 3 min, sampled at 15-sec intervals) using a Beckman DU-7 spectrophotometer and a Kinetics Analysis package (Beckman Instruments, Inc.). One unit of MPO activity is defined as that degrading one micromole of peroxide per minute at 25° C.
Statistical analysis was done using Student's "t" test.

[2] = test system: Arachidonic acid induced ear inflammation; assay: Assay (h): Arachidonic acid induced ear inflammation assay; assay type: in vivo, mouse; details: for activity in the AA ear model: @ 1 mg; for AA % change in edema / change in MPO for AA: topical, doses of 0.2, 0.1 and 0.3 for dexamethasone, scalaradial, WY 50,295 respectively
Procedure: as §1
Arachidonic acid is dissolved in acetone ([…]) to the left ear of BALB/c male mice. The thickness of both ears was measured with a constant pressure thickness guage 1 hour after treatment and the data expressed as the change in thickness between treated and untreated ears. Test compounds or vehicle are given at the time of AA applciation. The inflammatory cell infiltration is measured by MPO activity as described above in the TPA ear edema assay. After the edema measurements are made, the inflamed ears are removed and assayed for MPO activity.

`O=S1(=O)CCn2c1nc(-c1ccc(F)cc1)c2-c1ccncc1` [6-(4'-Fluorophenyl)-5-(4-pyridyl)2,3-dihydroimidzo-[2,1-b]thiazole-dioxide] was tested. Which “effect on CoA-IT activity” value (CoA-IT; at concentrations up to 100 μM) did it give?
The value was “no effect”.

`Fc1ccc(-c2nc3n(c2-c2ccncc2)CCS3)cc1` [6-(4'-Fluorophenyl)-5-(4pyridyl)-2,3-dihydroimidzo-[2,1-b]thiazole] was tested. Which “effect on CoA-IT activity” value (CoA-IT; at concentrations up to 100 μM) did it give?
Its value is “no effect”.

Which “effect on CoA-IT activity” value (CoA-IT; at concentrations up to 100 μM) does the source give for `Cc1cc(C(C)(C)C)c(O)c(C(C)(C)C)c1` [BHT] here?
The value was “no effect”.

How did the “effect on CoA-IT activity” value (CoA-IT; at concentrations up to 100 μM) turn out when `CN(C)CCC=C1c2ccccc2COc2ccccc21` [Doxepine] was run?
The value was “did not inhibit”.

`CCC(C)(C)c1ccc(Oc2ccc(C(F)(F)F)cc2NC(=O)Nc2cc(C(F)(F)F)cc(C(F)(F)F)c2)c(S(=O)(=O)O)c1` [Example 2, 2-[2-[3-[3,5-Bis(trifluoromethyl)phenyl]ureido]-4-trifluoromethylphenoxy]5-(1,1-dimethylpropyl)benzenesulfonic acid, sodium salt] was tested. Which IC50 (human Monocytes; LTC4 release, A23187, read-out: LTC4 (as an IC50)) did it give?
Its IC50 is 1000 nM.

And the IC50 (human Monocytes; PGE2 release, A23187, read-out: PGE2 (as an IC50))?
The IC50 was > 10000 nM.

And the “MPO ED50” value [1]?
The value was 0.25 mg/ear.

And the “edema ED50” value [1]?
The value was 0.87 mg/ear.

And the “inhibition in these animal models” value ([1]; mouse ear inflammation models (TPA and AA))?
Its value is “positive inhibition”.

And the “activity in the AA ear model” value [2]?
The value was -25.

For `CCC(C)(C)c1ccc(Oc2ccc(C(F)(F)F)cc2NC(=O)Nc2ccc(Cl)c(C(F)(F)F)c2)c(S(=O)(=O)O)c1` [Example 3, 2-[2-[3-(4-Chloro-3-trifluoromethylphenyl)ureido]-4-trifluoromethylphenoxy]-5-(1,1-dimethylpropyl)benzenesulfonic acid, sodium salt], which “MPO ED50” value [1] is on record?
The value was 0.36 mg/ear.

And the “edema ED50” value [1]?
Its value is 0.32 mg/ear.

What about the “activity in the AA ear model” value [2] of the same molecule?
Its value is -22.

How did the “TPA % change in edema” value [1] turn out when `CC(C(=O)O)c1ccc2cc(OCc3ccc4ccccc4n3)ccc2c1` (centres unmarked) [WY 50,295] was run?
Its value is -18%.

What about the “change in MPO for TPA model” value [1] of the same molecule?
Its value is -36.

And the “AA % change in edema” value [2]?
The value was -50%.

What about the “change in MPO for AA” value [2] of the same molecule?
The value was -90.

Which “effect on CoA-IT activity” value (CoA-IT; at concentrations up to 500 μM) does the source give for `COc1cccc2c1cc([N+](=O)[O-])c1c(C(=O)O)cc3c(c12)OCO3` [aristolochic acid] here?
Its value is “no effect”.

With `C[C@@H]1C[C@H]2[C@@H]3CCC4=CC(=O)C=C[C@]4(C)[C@@]3(F)[C@@H](O)C[C@]2(C)[C@@]1(O)C(=O)CO` [dexamethasone] as the molecule, how does the “TPA % change in edema” value [1] read?
Its value is -50%.

What about the “change in MPO for TPA model” value [1] of the same molecule?
Its value is -54.

What about the “AA % change in edema” value [2] of the same molecule?
The value was -10%.

What about the “change in MPO for AA” value [2] of the same molecule?
The value was 0.

Which “effect on CoA-IT activity” value (CoA-IT; at concentrations up to 100 μM) does the source give for `COc1ccc2c(c1)c(CC(=O)O)c(C)n2C(=O)c1ccc(Cl)cc1` [indomethicin] here?
The value was “no effect”.

For `COc1ccc2cc([C@H](C)C(=O)O)ccc2c1` [naproxen], which “effect on CoA-IT activity” value (CoA-IT; at concentrations up to 100 μM) is on record?
The value was “no effect”.

With `CCN(CC)CCCC(C)Nc1c2ccc(Cl)cc2nc2ccc(OC)cc12` (centres unmarked) [quinacrine] as the molecule, how does the “effect on CoA-IT activity” value (CoA-IT; at concentrations up to 500 μM) read?
Its value is “no effect”.

`CC(=O)O[C@H]1C[C@@H]2[C@@]3(C)CCCC(C)(C)[C@@H]3CC[C@@]2(C)[C@@H]2CC=C(C=O)[C@H](C=O)[C@@]12C` [scalaradial] was tested. Which “TPA % change in edema” value [1] did it give?
The value was -46%.

What about the “change in MPO for TPA model” value [1] of the same molecule?
The value was -65.

What about the “AA % change in edema” value [2] of the same molecule?
The value was -11%.

And the “change in MPO for AA” value [2]?
The value was -33.
